Read-outs that look alike come from different tables or passages of the source.

The target in data set [1] is Silver catfish (Synodontis eupterus) major hepatic glutathione transferase (seGST). The experiment in a line: Product and dead-end inhibition studies of seGST. The class given is biochemical.
Data set [2] shares this target. It counts as biochemical. The following applies: pH 6.5, 1 mM CDNB and 1 mM GSH.
In data set [3] the test system is Silver catfish (Synodontis eupterus) major hepatic glutathione transferase (seGST). The experiment in a line: seGST steady state kinetics, GSH-CDNB conjugation. It counts as biochemical. Particulars: for Km: 0.1-1.2 mM GSH and CDNB, one substrate varied, the other kept constant.
The test system of a further data set is GST. The following applies: cited from earlier work.
For data set [4], the system named is Silver catfish (Synodontis eupterus) major hepatic glutathione transferase (seGST). The experiment in a line: Viscosity dependence of seGST kcat/KM. The class given is biochemical. The following applies: viscosogen added, 25 °C.

Take “1-methyl glutathione [1−methylglutathione]”: the Ki in data set [1] (read-out: Kis (CDNB varied), CDNB varied) was 0.16 µM; in data set [1] (read-out: Kis (GSH varied), CDNB fixed at 1.0 mM, GSH 0.1-1.0 mM) it was 0.09 µM. Also, the IC50 – broadly, the concentration that gives 50% inhibition – in data set [2] was 16.6 ± 1.58 µM.
In the case of `O=C1OC(c2ccc(O)c(S(=O)(=O)O)c2)(c2ccc(O)c(S(=O)(=O)O)c2)c2c(Br)c(Br)c(Br)c(Br)c21` [Bromosulphosptlein, bromosulfophthalein], half-maximal inhibition in data set [2] (IC50) required 47.4 ± 5.67 µM.
For the compound `O=[N+]([O-])c1ccc(Cl)c([N+](=O)[O-])c1` [CDNB, 1-chloro 2,4-dintrobenzene], in data set [3] (25 °C), the Km (as a rule, the concentration of substrate that gives half-maximal velocity) was found to be 690 ± 170 µM. Besides, in data set [3] (from secondary plots, GSH-CDNB), the “KIB (E.CDNB + GSH ⇌ E.CDNB.GSH)” value is listed as 0.48 ± 0.02.
Take `Nc1c(S(=O)(=O)O)cc(Nc2ccc(Nc3nc(Cl)nc(Nc4ccccc4S(=O)(=O)O)n3)c(S(=O)(=O)O)c2)c2c1C(=O)c1ccccc1C2=O` [Cibracron Blue]: the IC50 in data set [2] is 0.01 ± 0.001 µM.
On the same count and under the same terms, to `C=C(CC)C(=O)c1ccc(OCC(=O)O)c(Cl)c1Cl` [Ethacrynic acid] belongs 21.3 ± 3.22 µM.
For `N[C@@H](CCC(=O)N[C@@H](CS)C(=O)NCC(=O)O)C(=O)O` [GSH, Reduced glutathione], the “pKa of GSH” value with GST (before lowering by GST) is on record as 9.0. For the same compound, the “pKa of the bound GSH” value in the data set with GST (bound to GST) was “about 6.5”. Also, the Km in data set [3] (25 °C) came to 530 ± 50 µM. In data set [3] (25 °C, GSH-CDNB conjugation), the “kcat[GSH]” value turned out to be 44.62 ± 1.124 s⁻¹. In data set [3] (from secondary plots, GSH-CDNB), the “KA (E.GSH + CDNB ⇌ E.GSH.CDNB)” value came out at 0.64 ± 0.04 and the “KIA (E.GSH)” value was 0.14 ± 0.01.
The compound `C=CC1=C(C)c2cc3[n-]c(cc4[n-]c(cc5nc(cc1n2)C(C)=C5C=C)c(C)c4CCC(=O)O)c(CCC(=O)O)c3C.[Fe+2]` [Hematin] displayed an IC50 in data set [2] of 5 ± 0.1 µM.
As to `[Cl-].[K+]` [KCl], the “inhibition pattern in double reciprocal plots” value in data set [1] (with respect to GSH and with respect to CDNB) was “non-competitive inhibition”.
For the compound `[Cl][Sn]([c]1ccccc1)([c]1ccccc1)[c]1ccccc1` [Triphenytin chloride, triphenyltin chloride], in data set [2], the IC50 stood at 0.05 ± 0.005 µM.
With `OCC(O)CO` [glycerol, Glycerol], in data set [4], the “catalytic efficiency indicated by the exponential value” worked out at 23%. Moreover, the “exponential value of (kcat/KM)^0/(kcat/KM) versus relative viscosity” value in data set [4] (0.1 M potassium phosphate buffer pH 6.5) is 0.227.
In data set [2], `CCCCCCSC[C@H](NC(=O)CC[C@H](N)C(=O)O)C(=O)NCC(=O)O` [s-hexylglutathione] had a half-maximal inhibitory concentration (IC50) of 17.6 ± 1.3 µM.
